Here are results for seven compounds from ChEMBL document CHEMBL6177998, “Rational Design of Dual Degraders by Incorporating Molecular Glue Structural Features into PROTAC Degraders” (J Med Chem, 2025).

Common to all, as to assay type: cell-based
For assay [1], the system named is Protein cereblon/Androgen receptor (Homo sapiens), P10275+Q96SW2 [UNDEFINED MUTATION]. Description: PROTAC activity at CRBN/Androgen receptor splice variant 7 in human 22Rv1 cells assessed as induction of AR-V7 degradation at 0.01 uM incubated for 24 hrs by Western blot analysis relative to control.
Sequence of Protein cereblon/Androgen receptor (Homo sapiens), P10275+Q96SW2 [UNDEFINED MUTATION] (P10275 whole entry, looked up, change not shown, canonical isoform): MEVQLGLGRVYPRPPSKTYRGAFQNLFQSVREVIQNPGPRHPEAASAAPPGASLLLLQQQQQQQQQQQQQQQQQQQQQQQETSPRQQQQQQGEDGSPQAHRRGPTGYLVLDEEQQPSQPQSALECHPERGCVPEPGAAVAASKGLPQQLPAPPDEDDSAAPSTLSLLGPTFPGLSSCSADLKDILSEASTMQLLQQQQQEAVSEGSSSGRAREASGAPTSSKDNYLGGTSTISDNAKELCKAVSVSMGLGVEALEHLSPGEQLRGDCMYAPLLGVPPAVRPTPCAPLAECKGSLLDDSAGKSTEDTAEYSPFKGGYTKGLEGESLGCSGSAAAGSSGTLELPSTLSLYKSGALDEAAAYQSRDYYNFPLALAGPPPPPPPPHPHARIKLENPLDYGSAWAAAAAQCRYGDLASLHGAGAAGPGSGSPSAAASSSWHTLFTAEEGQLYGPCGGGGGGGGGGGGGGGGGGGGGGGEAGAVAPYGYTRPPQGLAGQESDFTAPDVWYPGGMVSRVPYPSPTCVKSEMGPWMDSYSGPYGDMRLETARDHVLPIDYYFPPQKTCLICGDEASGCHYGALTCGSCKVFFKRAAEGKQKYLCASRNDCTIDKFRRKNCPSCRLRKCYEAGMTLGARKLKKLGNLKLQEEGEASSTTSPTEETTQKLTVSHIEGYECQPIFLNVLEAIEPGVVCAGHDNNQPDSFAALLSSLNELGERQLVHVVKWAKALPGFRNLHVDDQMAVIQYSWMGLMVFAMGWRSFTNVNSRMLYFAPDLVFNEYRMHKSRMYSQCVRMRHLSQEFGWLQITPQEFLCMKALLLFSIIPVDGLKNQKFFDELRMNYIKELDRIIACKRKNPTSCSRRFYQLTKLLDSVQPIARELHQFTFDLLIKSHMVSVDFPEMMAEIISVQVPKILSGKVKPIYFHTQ
Sequence of Protein cereblon/Androgen receptor (Homo sapiens), P10275+Q96SW2 [UNDEFINED MUTATION] (Q96SW2 whole entry, looked up, change not shown, canonical isoform): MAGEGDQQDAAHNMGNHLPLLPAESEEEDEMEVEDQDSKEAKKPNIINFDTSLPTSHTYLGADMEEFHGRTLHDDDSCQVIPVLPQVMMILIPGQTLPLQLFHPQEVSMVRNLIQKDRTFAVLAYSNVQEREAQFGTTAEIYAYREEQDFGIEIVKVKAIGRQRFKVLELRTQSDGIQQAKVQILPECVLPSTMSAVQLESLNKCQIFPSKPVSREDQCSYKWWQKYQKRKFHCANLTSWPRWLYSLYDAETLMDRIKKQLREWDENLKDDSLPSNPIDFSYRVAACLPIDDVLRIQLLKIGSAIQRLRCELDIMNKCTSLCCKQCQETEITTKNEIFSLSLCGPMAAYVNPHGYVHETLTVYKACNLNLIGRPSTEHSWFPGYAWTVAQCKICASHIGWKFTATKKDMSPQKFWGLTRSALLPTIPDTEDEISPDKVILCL
Assay [2] deals with T1, Protein cereblon/Androgen receptor (Homo sapiens, UniProt P10275+Q96SW2). In words: PROTAC activity at CRBN/AR in human VCaP cells assessed as induction of AR degradation at 0.01 uM incubated for 24 hrs by Western blot analysis relative to control.
T1 sequence (P10275 whole entry, looked up): as the sequence (P10275 whole entry, looked up, change not shown, canonical isoform) above
T1 sequence (Q96SW2 whole entry, looked up): as the sequence (Q96SW2 whole entry, looked up, change not shown, canonical isoform) above
In assay [3] the target is T1, Protein cereblon/Androgen receptor. In words: PROTAC activity at CRBN/AR in human 22Rv1 cells assessed as induction of AR degradation at 0.1 uM incubated for 24 hrs by Western blot analysis relative to control.
Assay [4] concerns the target T2, Protein cereblon/Eukaryotic peptide chain release factor GTP-binding subunit ERF3A (Homo sapiens, UniProt Q96SW2+P15170). Description: Molecular glue activity at CRBN/GSPT1 in human 22Rv1 cells assessed as induction of GSPT1 degradation at 0.1 uM incubated for 24 hrs by Western blot analysis relative to control.
In assay [5] the target is T1, Protein cereblon/Androgen receptor. Description: PROTAC activity at CRBN/AR in human VCaP cells assessed as induction of AR degradation at 0.1 uM incubated for 24 hrs by Western blot analysis relative to control.
Assay [6] deals with Protein cereblon/Androgen receptor (Homo sapiens), P10275+Q96SW2 [UNDEFINED MUTATION]. Description: PROTAC activity at CRBN/Androgen receptor splice variant 7 in human VCaP cells assessed as induction of AR-V7 degradation at 0.01 uM incubated for 24 hrs by Western blot analysis relative to control.
Assay [7] shares this test system. In words: PROTAC activity at CRBN/Androgen receptor splice variant 7 in human 22Rv1 cells assessed as induction of AR-V7 degradation at 0.1 uM incubated for 24 hrs by Western blot analysis relative to control.
Assay [8] deals with T2, Protein cereblon/Eukaryotic peptide chain release factor GTP-binding subunit ERF3A. Description: Molecular glue activity at CRBN/GSPT1 in human 22Rv1 cells assessed as induction of GSPT1 degradation at 0.01 uM incubated for 24 hrs by Western blot analysis relative to control.
Assay [9] deals with Protein cereblon/Androgen receptor (Homo sapiens), P10275+Q96SW2 [UNDEFINED MUTATION]. Description: PROTAC activity at CRBN/Androgen receptor splice variant 7 in human VCaP cells assessed as induction of AR-V7 degradation at 0.1 uM incubated for 24 hrs by Western blot analysis relative to control.
Assay [10] concerns the target T1, Protein cereblon/Androgen receptor. Description: PROTAC activity at CRBN/AR in human 22Rv1 cells assessed as induction of AR degradation at 0.01 uM incubated for 24 hrs by Western blot analysis relative to control.
The target is the same in assay [11]. In words: PROTAC activity at CRBN/AR in human 22Rv1 cells assessed as induction of AR degradation at 5 uM incubated for 24 hrs by Western blot analysis relative to control.
Assay [12] has as its system Protein cereblon/Androgen receptor (Homo sapiens), P10275+Q96SW2 [UNDEFINED MUTATION]. In words: PROTAC activity at CRBN/Androgen receptor splice variant 7 in human VCaP cells assessed as induction of AR-V7 degradation at 1 uM incubated for 24 hrs by Western blot analysis relative to control.
For assay [13] the test system is unchanged. Description: PROTAC activity at CRBN/Androgen receptor splice variant 7 in human 22Rv1 cells assessed as induction of AR-V7 degradation at 5 uM incubated for 24 hrs by Western blot analysis relative to control.
Assay [14] has the same test system. Description: PROTAC activity at CRBN/Androgen receptor splice variant 7 in human 22Rv1 cells assessed as induction of AR-V7 degradation at 1 uM incubated for 24 hrs by Western blot analysis relative to control.
Assay [15] concerns the target T2, Protein cereblon/Eukaryotic peptide chain release factor GTP-binding subunit ERF3A. In words: Molecular glue activity at CRBN/GSPT1 in human 22Rv1 cells assessed as induction of GSPT1 degradation at 1 uM incubated for 24 hrs by Western blot analysis relative to control.
Assay [16] has as its target T1, Protein cereblon/Androgen receptor. In words: PROTAC activity at CRBN/AR in human 22Rv1 cells assessed as induction of AR degradation at 1 uM incubated for 24 hrs by Western blot analysis relative to control.
The test system of assay [17] is Protein cereblon/Androgen receptor (Homo sapiens), P10275+Q96SW2 [UNDEFINED MUTATION]. Description: PROTAC activity at CRBN/Androgen receptor splice variant 7 in human VCaP cells assessed as induction of AR-V7 degradation at 5 uM incubated for 24 hrs by Western blot analysis relative to control.
Assay [18] concerns the target T1, Protein cereblon/Androgen receptor. Description: PROTAC activity at CRBN/AR in human VCaP cells assessed as induction of AR degradation at 1 uM incubated for 24 hrs by Western blot analysis relative to control.
Assay [19] concerns the target T2, Protein cereblon/Eukaryotic peptide chain release factor GTP-binding subunit ERF3A. In words: Molecular glue activity at CRBN/GSPT1 in human 22Rv1 cells assessed as induction of GSPT1 degradation at 5 uM incubated for 24 hrs by Western blot analysis relative to control.
Assay [20] addresses T1, Protein cereblon/Androgen receptor. Description: PROTAC activity at CRBN/AR in human VCaP cells assessed as induction of AR degradation at 5 uM incubated for 24 hrs by Western blot analysis relative to control.

T2 sequence (P15170 whole entry, looked up): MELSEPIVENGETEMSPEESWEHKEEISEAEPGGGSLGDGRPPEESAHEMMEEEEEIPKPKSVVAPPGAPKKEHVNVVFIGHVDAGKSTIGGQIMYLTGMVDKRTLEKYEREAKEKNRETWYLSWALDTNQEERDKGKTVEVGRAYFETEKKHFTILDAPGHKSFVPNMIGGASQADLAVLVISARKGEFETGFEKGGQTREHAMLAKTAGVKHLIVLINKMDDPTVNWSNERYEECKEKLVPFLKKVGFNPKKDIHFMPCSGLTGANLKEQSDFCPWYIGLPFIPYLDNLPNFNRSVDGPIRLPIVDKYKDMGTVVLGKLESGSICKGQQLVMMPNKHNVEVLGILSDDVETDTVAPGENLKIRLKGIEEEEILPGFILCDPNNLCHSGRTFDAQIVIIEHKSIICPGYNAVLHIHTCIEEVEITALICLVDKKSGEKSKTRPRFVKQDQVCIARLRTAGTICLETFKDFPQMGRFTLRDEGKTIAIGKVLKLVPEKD
T2 sequence (Q96SW2 whole entry, looked up): as the sequence (Q96SW2 whole entry, looked up, change not shown, canonical isoform) above

On to `CC(C)(c1ccc(OCc2ccncn2)cc1)c1cc(Cl)c(OCC2CCN(C(=O)CCCCCNc3ccc4c(c3)C(=O)N(C3CCC(=O)NC3=O)C4=O)CC2)c(C#N)c1` (stereo not given), for which the Activity is 75.5% in [1]; 61.3% in assay [2]; 80.5% in assay [3]; 97.2% in assay [4]; 58.8% in [5]; 72.3% in [6]. Besides, the Activity in assay [7] was 77.7%; in [8] it was 97.5%; in assay [9], 84.5%; in assay [10], 75.1%.
On to `CC(C)(c1ccc(OCC2CCOC2)cc1)c1cc(Cl)c(OCC2CCN(C(=O)CCCCCNc3ccc4c(c3)C(=O)N(C3CCC(=O)NC3=O)C4=O)CC2)c(C#N)c1` (stereo not given), for which the Activity in assay [1] stood at 76.8%; in assay [2], 83.9%; in assay [3], 73.5%; in assay [4], 96.1%; in assay [5], 85.1%; in assay [6] it was 43.6%. For the same compound, the Activity in [7] is 89.1%; in assay [8] it was 96.6%; in assay [9], 40.1%; in assay [10] it was 72.5%.
For `COc1ccc(C(C)(C)c2ccc(OCC3CCN(C(=O)CCCCCNc4ccc5c(c4)C(=O)N(C4CCC(=O)NC4=O)C5=O)CC3)cc2)cc1` (stereo not given), the Activity in assay [1] was determined as 6.7%; in assay [2] it was 20.7%; in [3] it was 79.5%; in assay [4], 94%; in [5], 83.9%; in assay [6] it was 23.3%. Also, the Activity in [7] amounted to 57.4%; in [8] it was 88.3%; in [9], 54.5%; in assay [10], 38.5%.
With `COc1ccc(C(C)(C)c2cc(Cl)c(OCC3CCN(C(=O)CCCCCNc4cc5c(cc4F)C(=O)N(C4CCC(=O)NC4=O)C5=O)CC3)c(C#N)c2)cc1` (stereo not given), the Activity in [1] is less than 5%; in [2], 25.1%; in assay [3], less than 5%; in assay [4], 88.6%; in assay [5], 17.3%; in assay [6], less than 5%. The Activity in [7] was 25.2%; in [8], 74.6%; in assay [9], 10%; in assay [10], less than 5%.
Turning to `CC(C)(c1ccc(OCC2CCN(C(=O)CCCCOc3ccc4c(c3)C(=O)N(C3CCC(=O)NC3=O)C4=O)CC2)cc1)c1ccc(OC[C@H](O)CCl)cc1` (stereo not given in full), the Activity in assay [11] is 32.3%; in assay [12], less than 5%; in [13], 56%; in assay [14] it was 33.3%; in assay [15], 29.6%; in [16], less than 5%. For the same compound, the Activity in assay [17] was less than 5%; in [18], less than 5%; in assay [19] it was 44.4%; in [20] it was less than 5%.
On to `CC(C)(c1ccc(OCC2CCN(C3CN(C(=O)CNc4ccc5c(c4)C(=O)N(C4CCC(=O)NC4=O)C5=O)C3)CC2)cc1)c1ccc(OC[C@H](O)CCl)cc1` (stereo not given in full), for which the Activity was less than 5% in assay [11]; less than 5% in assay [12]; less than 5% in assay [13]; less than 5% in assay [14]; 37% in assay [15]; less than 5% in assay [16]. Further, the Activity was less than 5% in [17], less than 5% in assay [18], 60.9% in assay [19] and less than 5% in assay [20].
`CC(C)(c1ccc(OCC2CCN(C(=O)CCCCNc3cccc4c3C(=O)N(C3CCC(=O)NC3=O)C4=O)CC2)cc1)c1ccc(OC[C@H](O)CCl)cc1` (stereo not given in full): the Activity in assay [11] was 22.3%; in assay [12], less than 5%; in assay [13] it was 27.1%; in assay [14], 20.1%; in [15], 39.6%; in assay [16], 12.4%. The Activity in assay [17] was less than 5%; in assay [18], less than 5%; in assay [19] it was 47.1%; in assay [20], less than 5%.
